Assay results published in US20150025120A1, “PYRAZOLE-ALCOHOL COMPOUNDS AND PHARMACEUTICAL USE THEREOF” (JAPAN TOBACCO INC., priority 2013, published 2015).

Experiments:
human PDHK1 (hPDHK1) = biological target: T1, human PDHK1 (hPDHK1) (Homo sapiens, UniProt Q15118); experiment: Inhibitory action of PDHK1 activity in vitro (residual PDH activity after kinase reaction); assay type: biochemical
T1 construct: made in house; host or cells: Escherichia coli BL21(DE3), pET17b
Experimental: The inhibitory action of PDHK activity was assessed indirectly by measuring the residual PDH activity after kinase reaction in the presence of a test compound.
In the case of human PDHK1 (hPDHK1, Genbank Accession No. L42450.1), a 1.3 kbp fragment encoding this protein was isolated from human liver cDNA by polymerase chain reaction (PCR). Modified hPDHK1 cDNA wherein FLAG-Tag sequence was added to the N terminus was prepared by PCR and cloned into a vector (pET17b-Novagen). The recombinant construct was transformed into Escherichia coli (DH5α-TOYOBO). The recombinant clones were identified, and plasmid DNA was isolated and subjected to the DNA sequence analysis. One clone which had the expected nucleic acid sequence was selected for expression work. […]
Then, 10 μL of substrates (5 mmol/L sodium pyruvate, 5 mmol/L Coenzyme A, 12 mmol/L NAD, 5 mmol/L thiamin pyrophosphate, diluted with buffer) were added. The mixture was incubated at room temperature for 90 min, and the residual PDH activity was measured.
The absorbance at 340 nm before and after PDH reaction was measured using a microplate reader to detect NADH produced by the PDH reaction. The hPDHK1 inhibition rate (%) of the test compound was calculated from the formula [{(PDH activity of the test compound−PDH activity of control)/PDH activity of blank−PDH activity of control)}× 100].

[1] = tested on: Zucker Diabetic Fatty rats; experiment: Effect of repeated administration of test compound on HbA1c in ZDF rats; assay type: in vivo, rat; conditions: 1 mg/kg orally once daily, mean ± standard deviation (n = 10)
Experimental: Zucker Diabetic Fatty rats (male, 7-week-old, CHARLES RIVER LABORATORIES JAPAN INC.), an animal model for type 2 diabetes, given a purified diet (5.9% fat diet, Oriental Yeast Co., Ltd.) were allocated to the vehicle group and the test compound groups so that no bias occurred in the plasma glucose and insulin levels, HbA1c levels and body weights. Repeated oral doses of the test compound (1 mg/kg/5 mL) were administered to the rats once daily at 3 hr before the dark period. A 0.5% aqueous methylcellulose solution was orally administered in the same manner to the rats of the vehicle group. On day 14 or 21 of administration, blood samples were collected from the tail vein and HbA1c level (%) was measured. Statistical analysis was performed by Dunnett's test. Values of p<0.05 were considered statistically significant.

T1 sequence (Q15118 29-436): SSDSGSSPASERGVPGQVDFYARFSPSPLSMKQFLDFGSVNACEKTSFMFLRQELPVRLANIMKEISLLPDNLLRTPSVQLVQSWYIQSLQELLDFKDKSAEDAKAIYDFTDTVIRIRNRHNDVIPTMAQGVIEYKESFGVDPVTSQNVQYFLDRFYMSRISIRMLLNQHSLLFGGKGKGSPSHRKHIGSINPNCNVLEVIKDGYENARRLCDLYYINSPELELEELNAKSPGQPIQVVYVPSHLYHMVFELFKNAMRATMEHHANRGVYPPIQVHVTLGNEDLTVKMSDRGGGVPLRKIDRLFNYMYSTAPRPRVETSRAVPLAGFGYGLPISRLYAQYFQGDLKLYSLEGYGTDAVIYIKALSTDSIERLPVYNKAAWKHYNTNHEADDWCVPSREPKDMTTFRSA

Row | Structure (SMILES) | IC50 (human PDHK1 (hPDHK1)) [µM] | HbAlc (%) ([1]; day 21 of administration) | HbAlc (%) ([1]; day 14 of administration)
1 | C[C@H](O)COc1cc(-c2cnn(CC(C)(C)O)c2)c2c(c1)[C@@](O)(C(F)(F)F)c1ccccc1-2 [compound (1), (9R)-4-[1-(2-hydroxy-2-methylpropyl)-1H-pyrazol-4-yl]-2-((2S)-2-hydroxypropoxy)-9-(trifluoromethyl)-9H-fluoren-9-ol] | 0.028 | 3.6 ± 0.3 | –
2 | CC(C)(O)COc1cc(-c2cnn(CC(C)(C)O)c2)c2c(c1)[C@@](O)(C(F)(F)F)c1ccccc1-2 [compound (2), (9R)-2-(2-hydroxy-2-methylpropoxy)-4-[1-(2-hydroxy-2-methylpropyl)-1H-pyrazol-4-yl]-9-(trifluoromethyl)-9H-fluoren-9-ol] | 0.034 | – | 3.5 ± 0.1
